Measurements taken from ChEMBL document CHEMBL1201862, “PubChem BioAssay data set” (2004).
The source made the active and inactive calls.

Assays:
Assay type in all cases: functional
[1] = biological target: T1, Replicative DNA helicase DnaB (Mycobacterium tuberculosis, UniProt P9WMR3); experiment: DnaB intein splicing inhibitors, dose response, biochemical, cell-free fluorescence (AID 449749)
T1 sequence (P9WMR3 whole entry): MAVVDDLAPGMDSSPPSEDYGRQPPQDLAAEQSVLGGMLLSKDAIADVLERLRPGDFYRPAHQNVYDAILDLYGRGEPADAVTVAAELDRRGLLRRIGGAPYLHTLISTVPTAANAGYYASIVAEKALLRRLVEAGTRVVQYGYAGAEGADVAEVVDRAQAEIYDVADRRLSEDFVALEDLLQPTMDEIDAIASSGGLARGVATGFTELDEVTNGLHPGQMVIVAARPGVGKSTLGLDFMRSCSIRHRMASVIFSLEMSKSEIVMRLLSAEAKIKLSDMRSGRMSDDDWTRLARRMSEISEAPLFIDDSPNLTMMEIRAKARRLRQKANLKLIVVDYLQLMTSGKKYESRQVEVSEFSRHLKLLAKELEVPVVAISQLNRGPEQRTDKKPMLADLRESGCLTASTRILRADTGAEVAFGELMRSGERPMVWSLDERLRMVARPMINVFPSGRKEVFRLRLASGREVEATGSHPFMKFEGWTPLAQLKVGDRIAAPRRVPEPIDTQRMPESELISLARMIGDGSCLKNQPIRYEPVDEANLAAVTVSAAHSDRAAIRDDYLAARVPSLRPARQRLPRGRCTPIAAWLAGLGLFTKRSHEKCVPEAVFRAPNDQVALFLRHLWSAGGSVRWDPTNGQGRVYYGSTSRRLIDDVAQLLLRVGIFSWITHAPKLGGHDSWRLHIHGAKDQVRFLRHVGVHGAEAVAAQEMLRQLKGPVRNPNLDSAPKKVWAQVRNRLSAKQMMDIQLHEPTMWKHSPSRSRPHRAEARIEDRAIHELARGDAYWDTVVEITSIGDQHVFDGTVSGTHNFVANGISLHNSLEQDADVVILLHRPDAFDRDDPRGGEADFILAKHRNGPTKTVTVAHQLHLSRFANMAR

Vero = Vero cell cytotoxicity, cytotoxicity control for flavivirus capping enzyme inhibitors (AID 588742); details: Chlorocebus sabaeus
[2] = biological target: Serine/threonine-protein kinase PLK3 (Homo sapiens, UniProt Q9H4B4)
Serine/threonine-protein kinase PLK3, sequence (Q9H4B4 whole entry): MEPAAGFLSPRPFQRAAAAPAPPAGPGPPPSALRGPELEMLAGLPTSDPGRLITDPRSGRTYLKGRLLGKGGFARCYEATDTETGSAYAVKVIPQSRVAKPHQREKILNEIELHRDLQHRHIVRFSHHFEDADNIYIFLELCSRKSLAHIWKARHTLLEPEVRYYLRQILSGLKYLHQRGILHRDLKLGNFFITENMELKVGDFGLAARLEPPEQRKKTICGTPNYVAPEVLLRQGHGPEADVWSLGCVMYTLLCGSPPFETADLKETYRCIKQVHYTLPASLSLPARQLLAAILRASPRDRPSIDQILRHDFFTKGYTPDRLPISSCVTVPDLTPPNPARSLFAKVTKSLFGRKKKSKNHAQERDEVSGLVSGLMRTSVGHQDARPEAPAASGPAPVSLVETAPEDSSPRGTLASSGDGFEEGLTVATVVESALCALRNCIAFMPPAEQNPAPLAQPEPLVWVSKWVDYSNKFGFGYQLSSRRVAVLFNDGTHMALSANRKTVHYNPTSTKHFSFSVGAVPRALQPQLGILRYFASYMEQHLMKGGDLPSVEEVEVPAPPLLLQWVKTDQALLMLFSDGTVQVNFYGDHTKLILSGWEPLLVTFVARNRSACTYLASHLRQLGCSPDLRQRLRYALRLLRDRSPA

[3] = biological target: RAC-gamma serine/threonine-protein kinase (Homo sapiens, UniProt Q9Y243)
RAC-gamma serine/threonine-protein kinase, sequence (Q9Y243 whole entry): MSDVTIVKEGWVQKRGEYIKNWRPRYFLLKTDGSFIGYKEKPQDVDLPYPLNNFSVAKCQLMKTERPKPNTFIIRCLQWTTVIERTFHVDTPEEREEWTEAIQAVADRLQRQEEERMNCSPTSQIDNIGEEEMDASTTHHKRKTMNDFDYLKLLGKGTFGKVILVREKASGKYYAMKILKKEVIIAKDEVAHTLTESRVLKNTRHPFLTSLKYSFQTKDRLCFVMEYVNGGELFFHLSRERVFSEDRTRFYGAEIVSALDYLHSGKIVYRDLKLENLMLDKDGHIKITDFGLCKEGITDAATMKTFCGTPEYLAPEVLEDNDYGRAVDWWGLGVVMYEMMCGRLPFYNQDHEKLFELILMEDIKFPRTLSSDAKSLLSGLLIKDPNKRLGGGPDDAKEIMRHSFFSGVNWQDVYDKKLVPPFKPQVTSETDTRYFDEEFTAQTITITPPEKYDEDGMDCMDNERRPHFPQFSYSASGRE

[4] = biological target: T2, Serine/threonine-protein kinase D3 (Homo sapiens, UniProt O94806);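 also: determined within a kinase panel screen, with PRKCN as the panel member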
T2 sequence (O94806 whole entry): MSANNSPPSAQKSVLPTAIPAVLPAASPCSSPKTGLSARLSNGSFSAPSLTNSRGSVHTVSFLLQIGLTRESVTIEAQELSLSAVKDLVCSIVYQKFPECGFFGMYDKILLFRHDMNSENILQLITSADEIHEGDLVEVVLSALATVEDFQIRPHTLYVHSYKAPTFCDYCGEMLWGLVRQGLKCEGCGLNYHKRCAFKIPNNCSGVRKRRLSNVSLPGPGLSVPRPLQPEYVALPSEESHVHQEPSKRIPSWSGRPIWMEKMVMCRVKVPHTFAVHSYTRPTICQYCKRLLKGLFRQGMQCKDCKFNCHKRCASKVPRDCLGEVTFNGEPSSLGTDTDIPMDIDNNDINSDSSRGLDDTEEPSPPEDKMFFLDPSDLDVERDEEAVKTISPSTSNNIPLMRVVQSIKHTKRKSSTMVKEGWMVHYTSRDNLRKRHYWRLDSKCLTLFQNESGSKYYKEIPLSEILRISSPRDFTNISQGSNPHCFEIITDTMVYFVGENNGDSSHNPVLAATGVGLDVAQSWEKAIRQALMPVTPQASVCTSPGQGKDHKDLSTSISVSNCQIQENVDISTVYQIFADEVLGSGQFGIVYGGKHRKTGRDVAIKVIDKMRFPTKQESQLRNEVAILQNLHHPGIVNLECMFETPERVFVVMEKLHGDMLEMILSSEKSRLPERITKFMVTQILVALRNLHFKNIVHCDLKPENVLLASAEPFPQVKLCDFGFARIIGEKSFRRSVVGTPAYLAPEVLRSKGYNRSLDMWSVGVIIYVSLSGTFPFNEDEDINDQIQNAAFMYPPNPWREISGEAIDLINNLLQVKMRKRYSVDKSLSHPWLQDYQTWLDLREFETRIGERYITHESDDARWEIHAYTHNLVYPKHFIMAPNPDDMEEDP

[5] = biological target: Death-associated protein kinase 3 (Homo sapiens, UniProt O43293);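 also: measured as one member of a kinome-wide profiling panel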
Death-associated protein kinase 3, sequence (O43293 whole entry): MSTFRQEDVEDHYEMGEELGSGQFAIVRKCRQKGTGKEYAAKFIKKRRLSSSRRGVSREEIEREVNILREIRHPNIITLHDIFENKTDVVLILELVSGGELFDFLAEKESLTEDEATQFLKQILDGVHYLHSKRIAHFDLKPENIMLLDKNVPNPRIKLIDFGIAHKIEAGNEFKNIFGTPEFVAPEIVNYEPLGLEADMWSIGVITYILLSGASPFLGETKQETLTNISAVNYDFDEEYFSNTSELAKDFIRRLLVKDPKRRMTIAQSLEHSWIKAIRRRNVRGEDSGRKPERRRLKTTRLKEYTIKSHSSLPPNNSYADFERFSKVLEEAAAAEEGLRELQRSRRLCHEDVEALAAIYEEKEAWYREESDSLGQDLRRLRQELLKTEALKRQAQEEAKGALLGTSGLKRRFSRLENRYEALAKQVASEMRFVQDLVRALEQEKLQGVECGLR

SRSF protein kinase 1 = SRSF protein kinase 1 (Homo sapiens, UniProt Q96SB4);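 also: measured as one member of a kinome-wide kinase profiling panel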
[6] = biological target: Cell division cycle 7-related protein kinase (Homo sapiens, UniProt O00311);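 also: value obtained from a kinome-wide kinase panel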
Cell division cycle 7-related protein kinase, sequence (O00311 whole entry): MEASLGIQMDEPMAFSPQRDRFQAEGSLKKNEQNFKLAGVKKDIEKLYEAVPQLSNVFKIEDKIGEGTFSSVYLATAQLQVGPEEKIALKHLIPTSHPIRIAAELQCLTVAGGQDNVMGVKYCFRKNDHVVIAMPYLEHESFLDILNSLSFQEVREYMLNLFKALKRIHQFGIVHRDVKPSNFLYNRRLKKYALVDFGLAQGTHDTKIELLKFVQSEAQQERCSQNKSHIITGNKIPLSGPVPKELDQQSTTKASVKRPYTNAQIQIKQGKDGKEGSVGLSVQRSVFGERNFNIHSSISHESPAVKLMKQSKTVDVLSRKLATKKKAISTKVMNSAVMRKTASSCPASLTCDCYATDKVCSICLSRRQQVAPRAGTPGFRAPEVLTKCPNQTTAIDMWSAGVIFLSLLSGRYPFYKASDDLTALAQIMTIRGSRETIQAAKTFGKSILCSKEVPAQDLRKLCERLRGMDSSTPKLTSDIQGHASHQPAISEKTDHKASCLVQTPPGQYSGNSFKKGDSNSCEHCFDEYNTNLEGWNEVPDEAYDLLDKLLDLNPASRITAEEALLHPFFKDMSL

[7] = biological target: Fibroblast growth factor receptor 1 (Homo sapiens, UniProt P11362)
Fibroblast growth factor receptor 1, sequence (P11362 whole entry): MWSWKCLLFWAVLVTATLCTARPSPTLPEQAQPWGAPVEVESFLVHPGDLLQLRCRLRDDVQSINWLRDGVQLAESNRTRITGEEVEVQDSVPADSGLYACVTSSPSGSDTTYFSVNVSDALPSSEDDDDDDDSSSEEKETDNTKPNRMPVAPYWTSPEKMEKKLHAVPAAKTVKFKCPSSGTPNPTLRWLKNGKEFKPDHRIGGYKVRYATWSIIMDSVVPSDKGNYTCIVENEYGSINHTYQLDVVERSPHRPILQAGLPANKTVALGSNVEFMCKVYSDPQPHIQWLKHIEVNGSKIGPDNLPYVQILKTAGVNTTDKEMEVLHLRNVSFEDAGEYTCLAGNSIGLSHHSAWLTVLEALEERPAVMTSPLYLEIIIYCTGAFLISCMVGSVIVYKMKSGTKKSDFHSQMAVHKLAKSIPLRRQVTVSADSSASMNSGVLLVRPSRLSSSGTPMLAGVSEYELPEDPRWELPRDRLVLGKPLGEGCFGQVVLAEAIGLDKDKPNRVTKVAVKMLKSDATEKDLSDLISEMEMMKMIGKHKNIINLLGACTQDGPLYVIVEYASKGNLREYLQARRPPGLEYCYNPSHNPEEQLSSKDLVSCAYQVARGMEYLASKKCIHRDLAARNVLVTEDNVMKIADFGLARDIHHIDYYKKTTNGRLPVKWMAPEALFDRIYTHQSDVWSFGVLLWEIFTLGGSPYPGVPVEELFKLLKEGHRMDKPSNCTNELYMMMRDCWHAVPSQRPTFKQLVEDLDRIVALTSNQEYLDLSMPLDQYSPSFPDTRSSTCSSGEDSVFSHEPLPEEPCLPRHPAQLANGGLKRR

[8] = biological target: Tyrosine-protein kinase Blk (Homo sapiens, UniProt P51451);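 also: obtained as one member of a kinome-wide kinase assay panel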
[9] = biological target: Serine/threonine-protein kinase pim-3 (Homo sapiens, UniProt Q86V86);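 also: value obtained as one member of a broad kinase panel profiling effort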
[10] = biological target: Hepatocyte growth factor receptor (Homo sapiens, UniProt P08581);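 also: kinase panel profiling across the kinome, with MET as the panel member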
[11] = biological target: MAP kinase-activated protein kinase 3 (Homo sapiens, UniProt Q16644);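 also: value comes from a kinome-wide profiling panel in which MAPKAPK3 is one of the panel members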
MAP kinase-activated protein kinase 3, sequence (Q16644 whole entry): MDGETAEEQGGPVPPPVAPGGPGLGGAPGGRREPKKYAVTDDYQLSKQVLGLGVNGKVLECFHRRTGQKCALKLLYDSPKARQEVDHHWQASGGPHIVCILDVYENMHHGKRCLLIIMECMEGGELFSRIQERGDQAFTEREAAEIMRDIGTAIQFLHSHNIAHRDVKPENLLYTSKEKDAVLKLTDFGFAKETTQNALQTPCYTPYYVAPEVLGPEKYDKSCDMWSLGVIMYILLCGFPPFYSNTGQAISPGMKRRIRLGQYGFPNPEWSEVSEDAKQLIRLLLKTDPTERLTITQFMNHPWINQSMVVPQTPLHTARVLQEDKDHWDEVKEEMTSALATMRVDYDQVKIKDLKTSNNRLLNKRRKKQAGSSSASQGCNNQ

[12] = biological target: Vascular endothelial growth factor receptor 2 (Homo sapiens, UniProt P35968)
[13] = biological target: Dual specificity tyrosine-phosphorylation-regulated kinase 1B (Homo sapiens, UniProt Q9Y463); experiment: Navigating the Kinome. Panel member name: DYRK1B
Dual specificity tyrosine-phosphorylation-regulated kinase 1B, sequence (Q9Y463 whole entry): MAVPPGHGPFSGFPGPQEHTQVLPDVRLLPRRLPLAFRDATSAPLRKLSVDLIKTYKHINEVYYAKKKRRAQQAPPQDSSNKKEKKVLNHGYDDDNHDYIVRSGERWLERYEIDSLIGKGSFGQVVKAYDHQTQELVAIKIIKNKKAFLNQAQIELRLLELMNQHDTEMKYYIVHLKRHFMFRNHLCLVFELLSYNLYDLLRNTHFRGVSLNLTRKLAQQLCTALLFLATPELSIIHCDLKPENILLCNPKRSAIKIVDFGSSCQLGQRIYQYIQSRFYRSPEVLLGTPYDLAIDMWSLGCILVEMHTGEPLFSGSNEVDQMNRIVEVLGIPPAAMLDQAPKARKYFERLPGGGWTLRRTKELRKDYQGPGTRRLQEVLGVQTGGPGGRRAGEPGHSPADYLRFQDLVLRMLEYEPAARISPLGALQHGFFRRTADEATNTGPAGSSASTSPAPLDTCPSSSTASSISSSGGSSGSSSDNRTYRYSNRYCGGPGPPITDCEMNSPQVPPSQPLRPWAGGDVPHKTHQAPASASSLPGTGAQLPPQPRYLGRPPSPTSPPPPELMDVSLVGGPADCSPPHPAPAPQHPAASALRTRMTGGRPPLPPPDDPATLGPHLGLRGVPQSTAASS

[14] = biological target: cAMP-dependent protein kinase catalytic subunit PRKX (Homo sapiens, UniProt P51817)
[15] = biological target: Maternal embryonic leucine zipper kinase (Homo sapiens, UniProt Q14680)
[16] = biological target: RAC-alpha serine/threonine-protein kinase (Homo sapiens, UniProt P31749);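 also: AKT1 affinity measured as one member of a kinome-wide kinase profiling panel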
RAC-alpha serine/threonine-protein kinase, sequence (P31749 whole entry): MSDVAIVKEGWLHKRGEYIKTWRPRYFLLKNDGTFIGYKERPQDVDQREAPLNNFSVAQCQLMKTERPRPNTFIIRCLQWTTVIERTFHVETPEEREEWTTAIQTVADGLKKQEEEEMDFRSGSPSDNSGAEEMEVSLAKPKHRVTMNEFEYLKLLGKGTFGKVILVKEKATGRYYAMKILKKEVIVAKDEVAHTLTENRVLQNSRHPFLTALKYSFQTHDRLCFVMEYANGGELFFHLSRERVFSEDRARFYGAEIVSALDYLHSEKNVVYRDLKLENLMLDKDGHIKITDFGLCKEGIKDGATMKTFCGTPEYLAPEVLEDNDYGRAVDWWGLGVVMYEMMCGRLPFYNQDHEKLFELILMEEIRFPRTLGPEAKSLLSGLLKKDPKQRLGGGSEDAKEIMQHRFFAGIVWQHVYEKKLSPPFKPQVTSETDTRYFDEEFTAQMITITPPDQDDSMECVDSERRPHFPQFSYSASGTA

[17] = biological target: Receptor tyrosine-protein kinase erbB-4 (Homo sapiens, UniProt Q15303);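 also: ERBB4 member of a kinome-wide kinase profiling panel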
[18] = biological target: cAMP-dependent protein kinase catalytic subunit alpha (Homo sapiens, UniProt P17612)
[19] = biological target: Macrophage colony-stimulating factor 1 receptor (Homo sapiens, UniProt P07333);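 also: value comes from the Navigating the Kinome screening panel, CSF1R member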
[20] = biological target: Glycogen synthase kinase-3 alpha (Homo sapiens, UniProt P49840);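 also: GSK3A result taken from a broad kinome-wide kinase panel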

Row | Compound | AC50 [1] | Ki [2] | Ki [3] | Ki [4] | Ki [5] | Ki [7] | Ki [9] | Ki [12] | Ki [13] | Ki [16] | Ki [18] | also measured
1 | COC(=O)CCS(=O)(=O)c1nc(-c2ccccc2)cc(C(F)(F)F)n1 | 3.44 µM (active) |  |  |  |  |  |  |  |  |  |  | 
2 | O=C(O)c1ccc(NC2=C(Cl)C(=O)c3ccccc3C2=O)cc1 | 3.36 µM (active) |  |  |  |  |  |  |  |  |  |  | CC50 (Vero): 28.3 µM (active)
3 | O=C(O)c1ccc2c3c(ncnc13)-c1ccccc1C2=O | 4.07 µM (active) |  |  |  |  |  |  |  |  |  |  | 
4 | Cc1ccc2nccc(NC(=O)Nc3cccc(C(F)(F)F)n3)c2c1 |  | > 7.94 µM (inactive) | > 10 µM (inactive) | 1.26 µM (active) | > 1.26 µM (inactive) | > 3.98 µM (inactive) | 0.316 µM (active) | > 2 µM (inactive) | > 2.51 µM (inactive) | > 7.94 µM (inactive) | > 7.94 µM (inactive) | Ki (SRSF protein kinase 1): > 7.94 µM (inactive); Ki [6]: > 1.26 µM (inactive); Ki [8]: > 1.58 µM (inactive); Ki [10]: > 3.16 µM (inactive); Ki [11]: > 10 µM (inactive); Ki [14]: > 2.51 µM (inactive); Ki [15]: > 1.58 µM (inactive); Ki [17]: > 3.98 µM (inactive); Ki [19]: > 2.51 µM (inactive)
5 | Cc1nn(C)c2sc3c(=O)[nH]cnc3c12 |  | > 79.4 µM (inactive) | > 100 µM (inactive) | 39.8 µM (active) | 50.1 µM (active) | > 50.1 µM (inactive) | 2.51 µM (active) | > 79.4 µM (inactive) | 12.6 µM (active) | > 79.4 µM (inactive) | 50.1 µM (active) | Ki [20]: 50.1 µM (active); Ki [10]: > 31.6 µM (inactive); Ki [19]: > 63.1 µM (inactive)
6 | Cc1c(/N=C2\C=CC(=O)c3ccccc32)c(=O)n(-c2ccccc2)n1C | 1.63 µM (active) |  |  |  |  |  |  |  |  |  |  | CC50 (Vero): 20.6 µM (active)
7 | COc1cc2c(cc1F)C(c1ccccc1Cl)=Nc1c(n[nH]c1C)N2 [RG-1530] |  | 6.31 µM (active) | > 10 µM (inactive) | > 3.98 µM (inactive) | > 1.26 µM (inactive) | 0.0501 µM (active) | > 7.94 µM (inactive) | 0.0126 µM (active) | 0.0316 µM (active) | > 7.94 µM (inactive) | > 3.16 µM (inactive) | Ki (SRSF protein kinase 1): 3.16 µM (active); Ki [6]: > 1.26 µM (inactive); Ki [8]: 0.0631 µM (active); Ki [20]: 0.0501 µM (active); Ki [11]: > 10 µM (inactive); Ki [14]: > 1.58 µM (inactive); Ki [15]: 1.26 µM (active); Ki [17]: 2 µM (active)
